{
  "source": "patent US11529324B2",
  "about": "“Use of Kv11.1 channel inhibitors for treatment of pulmonary hypertension” (Georgetown University, priority 2019, dated 2022)",
  "key": {"PAH-induced SD rats [1]": {"system": "PAH-induced SD rats", "assay": "Dofetilide treatment of SU5416/hypoxia PAH-induced and healthy SD rats, H&E lung histology and morphometric analysis (Example 5)", "assay_type": "in vivo, rat", "description": "(§1) Male SD and Fischer rats were purchased from Charles River Laboratories International, Inc., (Wilmington, Mass., USA). To induce PAH, rats were subcutaneously injected with 20 mg/kg body weight SU5416 (inhibitor of vascular endothelial growth factor (VEGF) receptor Flk/1-KDR; MedChemExpress, Monmouth Junction, N.J., USA) and maintained in hypoxia^28-30. For hypoxia, animals were placed in a chamber (30″ w×20″ d×20″ h) regulated by an OxyCycler Oxygen Profile Controller (Model A84XOV; BioSpherix, Redfield, N.Y., USA) set to maintain 10% O2 with an influx of N2 gas, located in the animal care facility at the Georgetown University Medical Center. […] Animals were fed normal rat chow.\nIn a first experiment to determine the effects of a Kv11.1 inhibitor (dofetilide), SD rats were divided into 4 groups that were treated with (1) DMSO, (2) dofetilide, (3) DMSO+SU5416/Hypoxia, and (4) dofetilide+SU5416/Hypoxia, respectively (n=4 for each group). Dofetilide (10 mg/kg body weight) was dissolved in DMSO and injected intraperitoneally before the injection of SU5416. For histological examination, lung tissues were fixed in 10% formalin and embedded in paraffin. The Georgetown University Animal Care and Use Committee approved all animal experiments, and the investigation conformed to the National Institutes of Health Guide for the Care and Use of Laboratory Animals.\nParaffin-embedded tissues were cut and mounted on glass slides. Tissue sections were subjected to hematoxylin and eosin (H&E) stain and immunohistochemistry using anti-smooth muscle actin (anti-SMA) antibody (Abcam, Cambridge, UK) and Kv11.1 antibody (Alomone Labs, Jerusalem, Israel).\nLung slides were analyzed for pulmonary artery wall thickness. 30 vessels were analyzed per animal in each group, and four values of external and internal diameters for thickness were measured for each vessel. The wall thickness was calculated as difference of external and internal diameters by using Fiji software.\nMeans±SEM were calculated and then comparisons between two groups were analyzed using a two-tailed Student's t test, while comparisons between three or more groups were analyzed using ANOVA with a Student-Newman-Keuls post-hoc test. P<0.05 was considered to be significant.\nTo determine if pharmacological inhibition of Kv11.1 channels would affect PAH progression, healthy and PAH-induced SD rats were treated with Kv11.1 channel-specific blocker dofetilide. Lung tissues from four groups of SD rats (four rats in each group) were examined with H&E staining. […] PAH-induced rats in group (3) had increased intimal endothelial cell proliferation, increased SPAMWT, and reduced pulmonary arterial lumen diameter compared to control rats (FIGS. 6A and 6B)."}, "PAH-induced SD rats [2]": {"system": "PAH-induced SD rats", "assay": "Lower doses of dofetilide in SU5416/hypoxia PAH-induced and healthy SD rats, H&E lung histology (Example 6)", "assay_type": "in vivo, rat", "description": "as §1\n(§2) In a second experiment to determine the effects of dofetilide, SD rats are divided into 4 groups that are treated with (1) DMSO, (2) dofetilide, (3) DMSO+SU5416/Hypoxia, and (4) dofetilide+SU5416/Hypoxia, respectively (n=4 for each group). Dofetilide (1000 μg/kg body weight) is dissolved in DMSO and injected intraperitoneally before the injection of SU5416. For histological examination, lung tissues are fixed in 10% formalin and embedded in paraffin.\nas §2, with “third” for “second”, “(100” for “(1000”\nas §2, with “fourth” for “second”, “(10” for “(1000”\nTo examine further if pharmacological inhibition of Kv11.1 channels would affect PAH progression, healthy and PAH-induced SD rats are treated with Kv11.1 channel-specific blocker dofetilide using lower doses (1 mg/kg, 0.1 mg/kg, 0.01 mg/kg, or 0.001 mg/kg) than was used in Example 5. Lung tissues from four groups of SD rats (four rats in each group) are examined with H&E staining. […] PAH-induced rats in Group (3) have increased intimal endothelial cell proliferation, increased SPAMWT, and reduced pulmonary arterial lumen diameter compared to control rats."}, "[3]": {"conditions": "PAH-induced (SU5416/hypoxia) SD rats, dofetilide 10 mg/kg i.p. before SU5416, group (4) compared with PAH-induced group (3)"}, "[4]": {"conditions": "PAH-induced SD rats, dofetilide lower doses (1, 0.1, 0.01 or 0.001 mg/kg) i.p., Group (4) compared with Group (3)"}},
  "data": [
    {"smiles": "CN(CCOc1ccc(NS(C)(=O)=O)cc1)CCc1ccc(NS(C)(=O)=O)cc1", "note": "[dofetilide]", "values": [
      {"measurement": "pulmonary arterial lumen diameter", "setting": "PAH-induced SD rats [1]; [3]", "value": "increased"},
      {"measurement": "small pulmonary arterial media wall thickness (SPAMWT)", "setting": "PAH-induced SD rats [1]; [3]", "value": "reduced"},
      {"measurement": "PAH-induced changes in SPAMWT", "setting": "PAH-induced SD rats [1]; dofetilide 10 mg/kg i.p., SPAMWT of PAH-induced dofetilide-treated group (4) statistically similar to control group (2)", "value": "completely eliminated"},
      {"measurement": "small pulmonary arterial media wall thickness (SPAMWT) in control rats", "setting": "PAH-induced SD rats [1]; healthy SD rats, dofetilide 10 mg/kg i.p. group (2) versus DMSO group (1), data not shown", "value": "no statistical differences"},
      {"measurement": "pulmonary arterial lumen diameter", "setting": "PAH-induced SD rats [2]; [4]", "value": "increased"},
      {"measurement": "small pulmonary arterial media wall thickness (SPAMWT)", "setting": "PAH-induced SD rats [2]; [4]", "value": "reduced"},
      {"measurement": "PAH-induced changes in SPAMWT", "setting": "PAH-induced SD rats [2]; dofetilide lower doses (1, 0.1, 0.01 or 0.001 mg/kg), SPAMWT of Group (4) statistically similar to control Group (2)", "value": "completely eliminates"},
      {"measurement": "small pulmonary arterial media wall thickness (SPAMWT) in control rats", "setting": "PAH-induced SD rats [2]; healthy SD rats, dofetilide lower doses Group (2) versus DMSO Group (1)", "value": "no statistical differences"}
    ]}
  ]
}
